In patent US8598157B2, “5-alkynyl-pyridines” (Boehringer Ingelheim International GmbH, priority 2011, dated 2013):
One block for each molecule: values may come before it.

Legend:
[1] = tested on: U87 cells; experiment: U87 cell assay (antiproliferative/cytotoxicity); assay type: cell-based; conditions: U-87MG human glioblastoma cells
Text: (§1) The H460, MB453, U87, MCF7 and BT474 alamarBlue cell assays provide EC50 values indicative of the antiproliferative or cytotoxic effects of the compounds to respectively the H460 (human non small cell line cancer), MB-453 (breast cancer cell line), U87 (glioblastoma cell line), MCF7 (breast cancer cell line) and BT474 (breast cancer cell line). As known in the field, antiproliferative or cytotoxic effect against this cell lines would be expected to be indicative of activity in treating lung, breast and brain cancers. See R. Marone R et al. Biochim. Biophys. Acta. 2008 January; 1784(1):159-85. S. Yaguchi et al., J. Natl. Cancer Inst. 2006 Apr. 19; 98(8):545-56.
(§2) Method Type: Antiproliferative/Cytotoxicity
(§3) alamarBlue® is designed to provide a rapid and sensitive measure of cell proliferation and cytotoxicity in various human and animal cell lines. The assay is based on the reduction of alamarBlue in the reducing environment of living (metabolically active) cells. In the presence of added cytotoxic or antiproliferative compounds, the innate metabolic activity ceases.
(§4) AlamarBlue is soluble and stable in culture medium. Measurements are made fluorometrically by exciting at 530-560 nm and measuring emission at 590 nm. In reporting percent alamarBlue reduction by monitoring fluorescence, data are expressed as fluorescence emission intensity units as a function of time of incubation.
(§5) 3. Equipment • 96-well plates, flat bottom (Falcon, Cat. No.: 353072) • 96-well plates, U-shaped (Costar, Cat. No.: 3799) • CO2-Incubator • Microplate Reader, Spectramax Plus, Molecular Devices 4. Typical Procedure • Day 0: Seed 3000 BT-474 cells (IMDM/5% FCS, 1% NEAA, 1% Sodiumpyruvat) in 150 μl medium into a 96-well plate, flat bottom (include mediumblank). Incubate plates at 37° C. in a CO2 incubator overnight. • Day 1: Dilute compounds to a concentration 40 μM->1:3 in medium, 10 dilution steps, in 96-well plates. • Add 50 μl per well of each dilution (total volume per well 200 μl; final conc. of cpds: 10 μM->1:3). If required, test further dilutions. • All concentrations are tested in duplicates. • Controls: Cells w/o cpd. (+50 μl medium/DMSO). • Cells are incubated with compounds for 5-6 days. • Day 6 or 7: Add 25 μl of alamarBlue solution to each well and incubate for 8 hours at 37° C. Measure fluorescence by exciting at 530-560 nm and measuring emission at 590 nm. 5. Evaluation • Subtract average value for medium blank from sample readings • Calculate EC50 using GraphPad Prism (Fifty)

[2] = tested on: H460 cells; experiment: alamarBlue H460 cell assay (antiproliferative/cytotoxicity); assay type: cell-based; conditions: NCI-H460; H460 human lung carcinoma cells
Text: as §1, §2, §3, §4, §5

[3] = molecular target: PI3Kalpha (Homo sapiens (Human), UniProt P42336); experiment: Inhibition of PI3Kalpha-induced PIP-2 phosphorylation (filter-binding assay); assay type: biochemical; conditions: 33P-ATP, p85alpha/His-p110alpha, read-out: IC50 PI3Kα
Sequence of PI3Kalpha (P42336 whole entry): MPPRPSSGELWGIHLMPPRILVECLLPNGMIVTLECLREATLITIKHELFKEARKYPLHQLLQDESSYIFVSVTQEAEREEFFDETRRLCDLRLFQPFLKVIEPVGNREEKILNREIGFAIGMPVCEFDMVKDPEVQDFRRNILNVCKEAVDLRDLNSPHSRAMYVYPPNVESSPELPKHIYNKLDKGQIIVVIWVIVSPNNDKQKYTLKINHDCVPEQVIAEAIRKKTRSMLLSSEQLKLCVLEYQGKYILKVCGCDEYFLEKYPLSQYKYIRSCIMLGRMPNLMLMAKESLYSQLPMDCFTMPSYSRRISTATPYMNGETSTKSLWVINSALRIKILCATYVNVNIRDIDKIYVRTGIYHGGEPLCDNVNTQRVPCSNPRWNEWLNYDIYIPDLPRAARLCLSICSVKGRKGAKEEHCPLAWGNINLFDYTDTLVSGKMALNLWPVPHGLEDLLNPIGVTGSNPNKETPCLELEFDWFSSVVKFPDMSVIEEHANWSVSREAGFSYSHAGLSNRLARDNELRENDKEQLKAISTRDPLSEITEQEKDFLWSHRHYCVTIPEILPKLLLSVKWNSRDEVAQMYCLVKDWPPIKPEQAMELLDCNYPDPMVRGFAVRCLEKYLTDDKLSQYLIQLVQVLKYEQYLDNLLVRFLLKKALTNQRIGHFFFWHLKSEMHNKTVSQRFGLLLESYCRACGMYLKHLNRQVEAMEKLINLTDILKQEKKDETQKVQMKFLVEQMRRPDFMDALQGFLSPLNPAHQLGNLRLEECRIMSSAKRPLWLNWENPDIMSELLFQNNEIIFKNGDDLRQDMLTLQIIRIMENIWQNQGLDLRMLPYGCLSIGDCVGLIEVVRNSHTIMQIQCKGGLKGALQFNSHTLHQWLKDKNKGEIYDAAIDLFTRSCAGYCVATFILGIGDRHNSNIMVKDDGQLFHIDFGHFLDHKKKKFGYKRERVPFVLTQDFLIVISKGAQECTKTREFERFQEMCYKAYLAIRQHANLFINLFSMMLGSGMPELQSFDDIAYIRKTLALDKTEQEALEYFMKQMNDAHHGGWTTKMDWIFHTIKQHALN
Text: Inhibition of PI3Kalpha-Induced PIP-2 Phosphorylation
This PI3Kalpha assay provides an IC50 value indicative of the activity of the compounds to inhibit PI3 kinase alpha activity. Inhibition of PI3 kinase would be expected to be indicative of activity in treating conditions of excessive or anomalous cell proliferation, such as cancers. See also J. A. Engelman, Nature Reviews Cancer, 2009, 9, 550-562; A. Carnero, Expert Opin. Investig. Drugs, 2009, 18, 1265-1277 and P. Liu et al., Nature Reviews Drug Discovery, 2009, 8, 627-64.
Method Type: Filter-Binding-Assay
Aliquoted in desired amounts and stored at −80° C. Final assay concentration 25 ng/well • Phosphotyrosin PDGFRbeta-peptide H-CGG-pY-[…]-pY-VPMLDM-NH2 was synthesized by Jerini Peptide Technologies (JPT) and used in a final conc. of 1.7 μM (stock 100 μM prepared in Assay buffer with DTT, aliquoted in desired amounts and stored at −80° C.) • Cold ATP (from Sigma; A-7699), 100 μM stock solution in H2O, use 1 μM final concentration in assay • [33P]-ATP, 370 MBq/ml from Amersham (#AH9968), use 0.5 μCi/well (10 mCi/ml) • Clear 96-well plates from Greiner (#655 162) • Filter plates: Perkin Elmer UniFilter GF/B #6005177 • Microscint 0 (from Perkin Elmer, #6013611) 2. Assay Procedure
The substrate-containing lipid vesicles are dissolved to a concentration of 0.637 mg lipid blend/ml assay buffer (with BSA, freshly added) in 50 ml Falcon->keep on ice, followed by ultrasonication (pulse of 15 sec followed by a pause of 10 sec, 4×). Compounds are serially diluted in assay buffer+6% DMSO and […] of each dilution is added per well of a 96-well plate (compounds are tested in duplicates) and mixed with 30 μl of the lipid vesicles containing PDGFR-Peptide ([…]) and PI3K alpha (25 ng/well final). The mixture is then incubated for 20 minutes at room temperature. Subsequently, 20 μl of assay buffer containing […] cold ATP and 0.5 μCi/20 μl 33P-ATP are added. The plates are then incubated at room temperature for 120 minutes (shaking with 300 rpm).
The reaction mix is transferred onto filter plates using “filtermate harvester” from Packard: filter plates are rinsed with PBS, then the reaction mix is filtered onto the filter plate, washed 5 times with PBS and are allowed to dry for 30-60 minutes at 50° C.
The plate bottom is sealed with Perkin Elmer white adhesive foil and 25 μl/well Microscint( ) are added, the top is covered with transparent adhesive foil and the plate is measured with Wallac Trilux 1450 Microbeta Counter.
As positive control serve wells containing vehicle controls (1% DMSO in assay buffer), showing non-inhibited kinase activity (high values). Wells containing assay buffer instead of enzyme can serve as control for background activity (low values).
Calculate IC50 values using the Smiley program (based on GrapPad Prism)

[4] = tested on: MB453 cells; experiment: alamarBlue MB453 cell assay (antiproliferative/cytotoxicity); assay type: cell-based; conditions: Homo sapiens; MDA MB 453 breast cancer cell line
Text: as §1, §2, §3, §4, §5

[5] = tested on: BT474 cells; experiment: alamarBlue BT474 cell assay (antiproliferative/cytotoxicity); assay type: cell-based; conditions: BT-474 human breast cancer cell line
Text: as §1, §2, §3, §4, §5

Structure (SMILES): COC1CCN(c2ncnc(C)c2C#Cc2cnc(C)c(NS(=O)(=O)c3ccccc3)c2)CC1 [Example I-74, N-{5-[4-(4-Methoxy-piperidin-1-yl)-6-methyl-pyrimidin-5-ylethynyl]-2-methyl-pyridin-3-yl}-benzenesulfonamide]
- EC50 [1]: 557 nM
- EC50 [2]: 703 nM
- IC50 [3]: 2 nM
- EC50 [4]: 987 nM
- EC50 [5]: 400 nM

Structure (SMILES): CCc1nc(N)nc(N2CCC(O)CC2)c1C#Cc1cnc(C)c(NS(C)(=O)=O)c1 [Example I-35, N-{5-[2-Amino-4-ethyl-6-(4-hydroxy-piperidin-1-yl)-pyrimidin-5-ylethynyl]-2-methyl-pyridin-3-yl}-methanesulfonamide]
- EC50 [2]: 25000 nM
- IC50 [3]: 5 nM

Structure (SMILES): CCc1ncnc(N2CCOCC2)c1C#Cc1cnc(OC)c(NS(C)(=O)=O)c1 [Example I-75, N-[5-(4-Ethyl-6-morpholin-4-yl-pyrimidin-5-ylethynyl)-2-methoxy-pyridin-3-yl]-methanesulfonamide]
- IC50 [3]: 1 nM
- EC50 [5]: 247 nM

Structure (SMILES): Cc1ncc(C#Cc2c(C)ncnc2N2CCCOCC2)cc1NS(=O)(=O)c1ccccc1 [Example I-73, N-[2-Methyl-5-(4-methyl-6-[1,4]oxazepan-4-yl-pyrimidin-5-ylethynyl)-pyridin-3-yl]-benzenesulfonamide]
- IC50 [3]: 2 nM
- EC50 [5]: 1940 nM

Structure (SMILES): CCc1ncnc(NC)c1C#Cc1cnc(C)c(NS(C)(=O)=O)c1 [Example I-33, N-[5-(4-Ethyl-6-methylamino-pyrimidin-5-ylethynyl)-2-methyl-pyridin-3-yl]-methanesulfonamide]
- IC50 [3]: 49 nM

Structure (SMILES): CCc1nc(N)nc(N2CCC(C)(O)CC2)c1C#Cc1cnc(C)c(NS(C)(=O)=O)c1 [Example I-43, N-{5-[2-Amino-4-ethyl-6-(4-hydroxy-4-methyl-piperidin-1-yl)-pyrimidin-5-ylethynyl]-2-methyl-pyridin-3-yl}-methanesulfonamide]
- EC50 [2]: 3670 nM
- IC50 [3]: 3 nM

Structure (SMILES): CCc1ncnc(N2CCOCC2)c1C#Cc1cnc(OC)c(NS(=O)(=O)CCOC)c1 [Example I-78, 2-Methoxy-ethanesulfonic acid [5-(4-ethyl-6-morpholin-4-yl-pyrimidin-5-ylethynyl)-2-methoxy-pyridin-3-yl]-amide]
- IC50 [3]: 2 nM
- EC50 [5]: 469 nM

Structure (SMILES): CCc1nc(N)nc(N2CCCCC2)c1C#Cc1cnc(C)c(NS(C)(=O)=O)c1 [Example I-36, N-[5-(2-Amino-4-ethyl-6-piperidin-1-yl-pyrimidin-5-ylethynyl)-2-methyl-pyridin-3-yl]-methanesulfonamide]
- IC50 [3]: 5 nM

Structure (SMILES): CCc1ncnc(N2CCOCC2)c1C#Cc1cnc(OC)c(NS(=O)(=O)CC)c1 [Example I-76, Ethanesulfonic acid [5-(4-ethyl-6-morpholin-4-yl-pyrimidin-5-ylethynyl)-2-methoxy-pyridin-3-yl]-amide]
- IC50 [3]: 2 nM
- EC50 [5]: 342 nM

Structure (SMILES): Cc1ncc(C#Cc2c(C)ncnc2N(C)CC2CCOC2)cc1NS(=O)(=O)c1ccccc1 (stereo not shown) [Example I-72, N-(2-Methyl-5-{4-methyl-6-[methyl-(tetrahydro-furan-3-ylmethyl)-amino]-pyrimidin-5-ylethynyl}-pyridin-3-yl)-benzenesulfonamide]
- IC50 [3]: 8 nM
- EC50 [5]: 5160 nM

Structure (SMILES): Cc1ncc(C#Cc2c(C)ncnc2N2CCOC[C@H]2C)cc1NS(=O)(=O)c1ccccc1 [Example I-69, N-{2-Methyl-5-[4-methyl-6-((R)-3-methyl-morpholin-4-yl)-pyrimidin-5-ylethynyl]-pyridin-3-yl}-benzenesuIfonamide]
- IC50 [3]: 2 nM
- EC50 [5]: 749 nM

Structure (SMILES): CCc1ncnc(N2CCCCC2)c1C#Cc1cnc(C)c(NS(C)(=O)=O)c1 [Example I-44, N-[5-(4-Ethyl-6-piperidin-1-yl-pyrimidin-5-ylethynyl)-2-methyl-pyridin-3-yl]-methanesulfonamide]
- EC50 [2]: 117 nM
- IC50 [3]: 2 nM

More lines, main results first:

- IC50 [3]: 0.44 nM
Structure (SMILES): COc1ncc(C#Cc2c(C)ncnc2N2CCOCC2)cc1NS(=O)(=O)c1ccccc1C(F)(F)F [Example I-83, 2-Trifluoromethyl-N-[2-methoxy-5-(4-methyl-6-morpholin-4-yl-pyrimidin-5-ylethynyl)-pyridin-3-yl]-benzenesulfonamide]
- EC50 [1]: 18 nM
- EC50 [2]: 6 nM
- EC50 [4]: 7 nM
- EC50 [5]: 6 nM

- IC50 [3]: 0.75 nM
Structure (SMILES): CCc1ncnc(N2CCOCC2)c1C#Cc1cnc(OC)c(NS(=O)(=O)c2cccs2)c1 [Example I-79, Thiophene-2-sulfonic acid [5-(4-ethyl-6-morpholin-4-yl-pyrimidin-5-ylethynyl)-2-methoxy-pyridin-3-yl]-amide]
- EC50 [5]: 20 nM

- IC50 [3]: 0.2 nM
Structure (SMILES): Cc1ncc(C#Cc2c(C)ncnc2N2CCOC[C@@H]2C)cc1NS(=O)(=O)c1ccccc1 [Example I-70, N-{2-Methyl-5-[4-methyl-6-((S)-3-methyl-morpholin-4-yl)-pyrimidin-5-ylethynyl]-pyridin-3-yl}-benzenesulfonamide]
- EC50 [5]: 615 nM

- IC50 [3]: 1 nM
Structure (SMILES): CCc1ncnc(N2CCOCC2)c1C#Cc1cnc(OC)c(NS(=O)(=O)C2CC2)c1 [Example I-77, Cyclopropanesulfonic acid [5-(4-ethyl-6-morpholin-4-yl-pyrimidin-5-ylethynyl)-2-methoxy-pyridin-3-yl]-amide]
- EC50 [5]: 263 nM

- IC50 [3]: 0.55 nM
Structure (SMILES): CCc1ncnc(N2CCOCC2)c1C#Cc1cnc(OC)c(NS(=O)(=O)c2ccco2)c1 [Example I-80, Furan-2-sulfonic acid [5-(4-ethyl-6-morpholin-4-yl-pyrimidin-5-ylethynyl)-2-methoxy-pyridin-3-yl]-amide]
- EC50 [5]: 40 nM

- IC50 [3]: 0.55 nM
Structure (SMILES): CCc1ncnc(N2CCC(C)(O)CC2)c1C#Cc1cnc(C)c(NS(C)(=O)=O)c1 [Example I-42, N-{5-[4-Ethyl-6-(4-hydroxy-4-methyl-piperidin-1-yl)-pyrimidin-5-ylethynyl]-2-methyl-pyridin-3-yl}-methanesulfonamide]
- EC50 [2]: 295 nM
